Measured values published in patent US20260324639A1, “MICROBIOCIDAL PYRAZOLE DERIVATIVES” (SYNGENTA CROP PROTECTION AG, priority 2022, published 2026).

Columns and labels:
[1] = test system: Alternaria solani; experiment: Alternaria solani/tomato/leaf disc (early blight); type: in vivo; details: 200 ppm; tomato leaf disks cv. Baby; inoculated 2 days after application; assessed 5-7 days after application
Procedure: Tomato leaf disks cv. Baby are placed on agar in multiwell plates (24-well format) and sprayed with the formulated test compound diluted in water. The leaf disks are inoculated with a spore suspension of the fungus 2 days after application. The inoculated leaf disks are incubated at 23° C./21° C. (day/night) and 80% rh under a light regime of 12/12 h (light/dark) in a climate cabinet and the activity of a compound is assessed as percent disease control compared to untreated when an appropriate level of disease damage appears on untreated check disk leaf disks (5-7 days after application).

[2] = test system: Botryotinia fuckeliana; experiment: Botryotinia fuckeliana (Botrytis cinerea)/liquid culture (gray mould); type: cell-based; details: liquid culture, Vogels broth, 24° C., growth inhibition photometric 3-4 days after application, read-out: control of Botryotinia fuckeliana compared to untreated control
Procedure: (§1) Conidia of the fungus from cryogenic storage are directly mixed into nutrient broth (Vogels broth). After placing a (DMSO) solution of test compound into a microtiter plate (96-well format), the nutrient broth containing the fungal spores is added. The test plates are incubated at 24° C. and the inhibition of growth is determined photometrically 3-4 days after application.

[3] = test system: Glomerella lagenarium; experiment: Glomerella lagenarium (Colletotrichum lagenarium)/liquid culture (anthracnose); type: cell-based; details: Colletotrichum orbiculare, liquid culture, PDB, 24° C., growth inhibition photometric 3-4 days after application, read-out: control of Glomerella lagenarium compared to untreated control
Procedure: as §1, with “(PDB potato dextrose” for “(Vogels”, “measured” for “determined”

[4] = test system: Blumeria graminis f. sp. tritici; experiment: Blumeria graminis f. sp. tritici/wheat/leaf disc preventative (powdery mildew on wheat); type: in vivo; details: 200 ppm, wheat leaf segments cv. Kanzler, inoculated 1 day after application, assessed 6-8 days after application
Procedure: Wheat leaf segments cv. Kanzler are placed on agar in a multiwell plate (24-well format) and sprayed with the formulated test compound diluted in water. The leaf disks are inoculated by shaking powdery mildew infected plants above the test plates 1 day after application. The inoculated leaf disks are incubated at 20° C. and 60% rh under a light regime of 24 h darkness followed by 12 h light/12 h darkness in a climate chamber and the activity of a compound is assessed as percent disease control compared to untreated when an appropriate level of disease damage appears on untreated check leaf segments (6-8 days after application).

[5] = test system: Fusarium culmorum; experiment: microbe, parasite or virus in culture; type: cell-based; details: read-out: control of Fusarium culmorum compared to untreated control
Procedure: as §1, with “(PDB potato dextrose” for “(Vogels”

[6] = test system: Gibberella zeae; type: in vivo, Gibberella zeae (Fusarium graminearum); details: 200 ppm; preventative; wheat spikelets cv. Monsun; inoculated one day after application; assessed 6-8 days after application
[7] = test system: Phaeosphaeria nodorum; experiment: Phaeosphaeria nodorum (Septoria nodorum)/wheat/leaf disc preventative (glume blotch); type: in vivo; details: 200 ppm, wheat leaf segments cv. Kanzler, inoculated 2 days after application, assessed 5-7 days after application
Procedure: (§2) Wheat leaf segments cv. Kanzler are placed on agar in a multiwell plate (24-well format) and sprayed with the formulated test compound diluted in water. The leaf disks are inoculated with a spore suspension of the fungus 2 days after application. The inoculated test leaf disks are incubated at 20° C. and 75% rh under a light regime of 12 h light/12 h darkness in a climate cabinet and the activity of a compound is assessed as percent disease control compared to untreated when an appropriate level of disease damage appears in untreated check leaf disks (5-7 days after application).

[8] = test system: Monographella nivalis; experiment: Monographella nivalis (Microdochium nivale)/liquid culture (foot rot cereals); type: cell-based; details: liquid culture, PDB, 24° C., growth inhibition photometric 4-5 days after application, read-out: control of Monographella nivalis compared to untreated control
Procedure: as §1, with “(PDB potato dextrose” for “(Vogels”, “4-5” for “3-4”

[9] = test system: Mycosphaerella arachidis; experiment: Mycosphaerella arachidis (Cercospora arachidicola)/liquid culture (early leaf spot); type: cell-based; details: liquid culture, PDB, 24° C., growth inhibition photometric 4-5 days after application, read-out: control of Mycosphaerella arachidis compared to untreated control
Procedure: as §1, with “(PDB potato dextrose” for “(Vogels”, “4-5” for “3-4”

[10] = test system: Pyrenophora teres; experiment: Pyrenophora teres/barley/leaf disc preventative (net blotch); type: in vivo; details: 200 ppm, barley leaf segments cv. Hasso, inoculated 2 days after application, assessed 5-7 days after application
Procedure: as §2, with “Barley” for “Wheat”, “Hasso” for “Kanzler”, “segments” for “disks”, “inoculated” for “inoculated test”, “65%” for “75%”, “as” for “as percent”

[11] = test system: Mycosphaerella graminicola; experiment: Mycosphaerella graminicola (Septoria tritici)/liquid culture (Septoria blotch); type: cell-based; details: Zymoseptoria tritici, liquid culture, PDB, 24° C., growth inhibition photometric 4-5 days after application, read-out: control of Mycosphaerella graminicola compared to untreated control
Procedure: as §1, with “(PDB potato dextrose” for “(Vogels”, “4-5” for “3-4”

[12] = test system: Puccinia recondita f. sp. tritici; experiment: Puccinia recondita f. sp. tritici/wheat/leaf disc curative (brown rust); type: in vivo; details: 200 ppm, applied 1 day after inoculation, wheat leaf segments cv. Kanzler, assessed 6-8 days after application
Procedure: Wheat leaf segments cv. Kanzler are placed on agar in multiwell plates (24-well format). The leaf segments are inoculated with a spore suspension of the fungus. Plates are stored in darkness at 19° C. and 75% rh. The formulated test compound diluted in water is applied 1 day after inoculation. The leaf segments are incubated at 19° C. and 75% rh under a light regime of 12 h light/12 h darkness in a climate cabinet and the activity of a compound is assessed as percent disease control compared to untreated when an appropriate level of disease damage appears in untreated check leaf segments (6-8 days after application).

[13] = test system: Puccinia recondita f. sp. tritici; experiment: Puccinia recondita f. sp. tritici/wheat/leaf disc preventative (brown rust); type: in vivo; details: 200 ppm, inoculated 1 day after application, wheat leaf segments cv. Kanzler, assessed 7-9 days after application
Procedure: Wheat leaf segments cv. Kanzler are placed on agar in multiwell plates (24-well format) and sprayed with the formulated test compound diluted in water. The leaf disks are inoculated with a spore suspension of the fungus 1 day after application. The inoculated leaf segments are incubated at 19° C. and 75% rh under a light regime of 12 h light/12 h darkness in a climate cabinet and the activity of a compound is assessed as percent disease control compared to untreated when an appropriate level of disease damage appears in untreated check leaf segments (7-9 days after application).

[14] = test system: Sclerotinia sclerotiorum; experiment: Sclerotinia sclerotiorum/liquid culture (cottony rot); type: cell-based; details: liquid culture (mycelia fragments), PDB, 24° C., growth inhibition photometric 3-4 days after application, read-out: control of Sclerotinia sclerotiorum compared to untreated control
Procedure: as §1, with “Mycelia fragments of a newly grown liquid culture” for “Conidia”, “fungus” for “fungus from cryogenic storage”, “(PDB potato dextrose” for “(Vogels”, “format)” for “format),”, “material” for “spores”

SMILES	control of Alternaria solani compared to untreated control [1]	inhibition of growth at 20 ppm [2] [%]	inhibition of growth at 20 ppm [3] [%]	control of Blumeria graminis f. sp. tritici compared to untreated control [4]	inhibition of growth at 20 ppm [5] [%]	control of Gibberella zeae compared to untreated control [6]	control of Phaeosphaeria nodorum compared to untreated control [7]	inhibition of growth at 20 ppm [8] [%]	inhibition of growth at 20 ppm [9] [%]	control of Pyrenophora teres compared to untreated control [10]	inhibition of growth at 20 ppm [11] [%]	control of Puccinia recondita f. sp. tritici compared to untreated control [12]	control of Puccinia recondita f. sp. tritici compared to untreated control [13]	inhibition of growth at 20 ppm [14] [%]
C[C@H]1c2ccccc2[C@@H](c2cnn(C)c2Cl)CN1C(=O)c1cn(-c2ncc(F)cc2F)nn1 [Compound P-54, [(1S,4S)-4-(5-chloro-1-methyl-pyrazol-4-yl)-1-methyl-3,4-dihydro-1H-isoquinolin-2-yl]-[1-(3,5-difluoro-2-pyridyl)triazol-4-yl]methanone]	at least 80%	≥ 80	≥ 80	at least 80%	≥ 80	at least 80%	at least 80%	≥ 80	≥ 80	at least 80%	≥ 80			
Cc1c([C@H]2CN(C(=O)c3nnn(-c4ccc(F)cc4F)n3)[C@@H](C)c3ccccc32)cnn1C (racemic) [Compound P-42, [2-(2,4-difluorophenyl)tetrazol-5-yl]-[rac-(1S,4S)-4-(1,5-dimethylpyrazol-4-yl)-1-methyl-3,4-dihydro-1H-isoquinolin-2-yl]methanone]	at least 80%	≥ 80	≥ 80	at least 80%	≥ 80		at least 80%	≥ 80	≥ 80	at least 80%	≥ 80	at least 80%	at least 80%	≥ 80
